Results on 1 compound are retold here after US8133851B2, “Heteroaroyl-substituted serine amides” (BASF SE, priority 2007, dated 2012).

SMILES strings stand for the structures.

Usually melting point stands for the temperature, or range, at which the solid turns liquid. As to `CNC(=O)C(NC(=O)c1cn(C)nc1C(F)(F)F)C1(OC(=O)N(C)C)CCC1` (stereo not shown) [Example 1, Dimethylcarbamic acid 1-{methylcarbamoyl-[(1-methyl-3-trifluoromethyl-1H-pyrazole-4-carbonyl)amino]methyl}cyclobutyl ester], the melting point was 190 °C.
